Columns and labels:
[1] = tested on: M9-ENL1 cells; assay: Chemical library screen, MTS assay; assay type: cell-based, human; details: 10 μM, 48 hours
Excerpt: (§1) To identify compounds active against leukemia stem cells, a library of drugs (n=312) with well-characterized pharmacokinetics and toxicology and a wide therapeutic window was compiled. This library was then screened to identify agents that reduced the viability of TEX and M9-ENL1 cells. TEX and M9-ENL1 cells were derived from lineage-depleted human cord blood cells (Lin-CB) transduced with TLS-ERG or MLL-ENL oncogenes, respectively, and, as shown previously, display properties of stem cells including hierarchal differentiation and marrow repopulation^14,16. In this screen, TEX and M9-ENL1 cells were treated with aliquots of the compounds. After incubation, cell growth and viability was measured by the MTS assay. From this screen, tigecycline was identified.
(§2) TEX, and M9-ENL-1 cells were seeded into 96-well polystyrene tissue culture plates (Corning). […] 72 (TEX) and 48 (M9-ENL-1) hours after incubation, cell growth and viability was measured by MTS assay. […]
(§3) Cell growth and viability was assessed by the MTS assay (Promega, Madison, Wis.) according to the manufacturer's instructions. Apoptosis and cell death was measured by Annexin V-fluoroscein isothiocyanate (FITC; Biovision Research Products, Mountain View, Calif.), propidium iodide staining and flow cytometry according to the manufacturer's instructions and as previously described^30. […]

[2] = tested on: TEX cells; assay: Chemical library screen, MTS assay; assay type: cell-based, human; details: 10 μM, 72 hours
Excerpt: as §1, §2, §3

[3] = tested on: primary AML patient samples; assay: Methylcellulose colony formation assay; assay type: cell-based, human; details: 5 μM, primary AML n=7, colonies at 7 days
Protocol: (§4) FIG. 2. Tigecycline induces cell death and inhibits clonogenic growth in primary AML cells preferential over normal hematopoietic cells. Mononuclear cells from peripheral blood of leukemia patients (blast count >80%) and normal G-CSF expanded donors was treated with increasing concentrations of tigecycline for 48 hours. Cell viability was measured by Annexin-PI flow cytometry staining. Cell viability is expressed as a mean percentage plus or minus SD (n=3) relative to DMSO-treated cells. Mononuclear cells from primary AML patient samples (A, B) and normal peripheral blood cells (C) were plated in methylcelluose with 5 μM of Tigecycline. (D) Colony forming units were counted at 7 days (AML) and 14 days (Normal) post plating. […]
(§5) To assess clonogenic growth, primary AML cells (1.0×10^5/mL) or granulocyte colony-stimulating factor (G-CSF) mobilized PBSCs (1.0×10^5/mL) were plated in duplicate with increasing concentrations of tigecycline in MethoCult GF H4434 medium (StemCell Technologies, Vancouver, BC) containing 1% methycellulose in IMDM, 30% FCS, 1% bovine serum albumin, 3 U/mL of recombinant human erythropoietin, 10^−4 M of 2-mercaptoethanol, 2 mM of L-glutamine, 50 ng/mL of recombinant human stem cell factor, 10 ng/mL of GM-CSF, and 10 ng/mL of rh IL-3). Seven days (AML samples) or 14 days (normal PBCS) after plating, the number of colonies was counted as previously described^31.

[4] = tested on: normal hematopoietic cells; assay: Methylcellulose colony formation assay; assay type: cell-based, human; details: 5 μM, normal hematopoietic cells n=5, colonies at 14 days
Protocol: as §4, §5

[5] = tested on: Cox-1, Cox-2, and Cox-4 mRNA; assay: Quantitative RT-PCR of Cox mRNA; assay type: cell-based, human; details: TEX and primary AML cells, 2.5 μM and 5 μM
Protocol: (§6) FIG. 4. […] (A) Cells from TEX, OCI-AML2 and two primary AML patients were treated with increasing concentrations (2.5 μM and 5 μM) of tigecycline for 36 and 48 hours of tigecycline. Total proteins were extracted and analyzed by western blotting for Cox-1, Cox-2, Cox-4, grp78, XIAP, actin and tubulin. (B) TEX and AML patient cells were treated with increasing concentrations (2.5 μM and 5 μM) of tigecycline. Cox-1, Cox-2, and Cox-4 mRNA expression relative 18S was determined by quantitative RT-PCR. Data is shown as mean±SD. (C) TEX cells were treated with increasing concentrations of tigecycline and chloramphenicol (CAP) for 72 hours. Complex I, II and IV enzyme activity relative to citrate synthase activity was determined as described in materials and methods. (D) Cells from TEX, primary AML patients, and normal donors were treated with increasing concentrations of tigecycline. Mitochondrial membrane potential (Δψ) was determined by staining cells with JC-1 dye, and flow cytometry analysis (Red/Green ratio). Reactive oxygen species generation (ROS) was determined by staining with h2-DCFDA and Dihydroethidium (DHE).

[6] = tested on: TEX cells; assay: ROS generation, DCF-DA and DHE staining; assay type: cell-based, human; details: time-points up to 24 hours
Protocol: as §6
A byproduct of the mitochondrial enzyme activities of the electron transport chain is the generation of reactive oxygen species (ROS). […] Therefore, the role of tigecycline on ROS generation in leukemia cells by analyzing hydrogen peroxide ions (H2O2) using a dichlorofluorescein dye (DCF-DA), and superoxide anions using dihydroethidium (DHE) was examined.

[7] = PK study in mice, single dose i.p.; assay type: in vivo; details: mouse, serum, ip, single dose 50 mg/kg i.p.

## CN(C)c1cc(NC(=O)CNC(C)(C)C)c(O)c2c1C[C@H]1C[C@H]3[C@H](N(C)C)C(O)=C(C(N)=O)C(=O)[C@@]3(O)C(O)=C1C2=O [tigecycline]
[1]
  screen result, cell growth and viability: identified
[2]
  screen result, cell growth and viability: identified
[3]
  reduction of clonogenic growth: 93±4%
[4]
  reduction of clonogenic growth: 34±5%
[5]
  Cox-1, Cox-2, Cox-4 mRNA expression relative 18S: preferential increased mRNA expression of mitochondrial-encoded genes Cox-1, Cox-2, over the nuclear-encoded gene Cox-4
[6]
  ROS generation: no observed increase in ROS generation
[7]
  Tmax: ~0.5 h
  half-life: ~4.5 h

Source: patent US20120329761A1, “USE OF TIGECYCLINE FOR TREATMENT OF CANCER” (UNIVERSITY HEALTH NETWORK, priority 2010, published 2012)
